Reference: article PMC8348310, “Antioxidants Isolated from Elaeagnus umbellata (Thunb.) Protect against Bacterial Infections and Diabetes in Streptozotocin-Induced Diabetic Rat Model” (Molecules, 2021)

How the values were obtained:
Staphylococcus aureus = assay: Agar well diffusion, zone of inhibition; format: cell-based; details: 37 °C, 24 h
Experimental: The antibacterial activity of the isolated compounds (morin, phloroglucinol, and 1-hexyl benzene) was determined using agar well diffusion method. Muller–Hinton agar media was prepared and autoclaved at 15 lbs pressure for 20 min and cooled to 45 °C. […] The entire wells were filled with 100 µL of the isolated compounds (stock solution: 1 mg/mL) using microtiter-pipette and allowed to diffuse at room temperature for 2 h. The plates were incubated at 37 °C for 24 h. In the center hole, Imipenem was added which served as positive control. Simultaneous, addition of an equal concentration of DMSO solvent instead of isolated compounds was used as blank. After incubation, the zones of inhibition were measured in millimeters (mm) and mean values were calculated. The experiments were performed in triplicates.

Escherichia coli = assay: Agar well diffusion, zone of inhibition; format: cell-based; details: 37 °C, 24 h
Experimental: (§1) Antibacterial potential of isolated compound was investigated against both Gram-positive and Gram-negative bacterial strains; Escherichia coli, Bacillus cereus, Salmonella typhi, Klebsiella pneumonia, Pseudomonas aeruginosa and Proteus mirabilis. Bacterial strains were provided by the Department of Pharmacy, University of Malakand, Khyber Pakhtunkhwa, Pakistan, and were kept at 4 °C in agar slants in freeze-dried condition until further use.
(§2) Both Gram-positive and Gram-negative bacterial strains Escherichia coli, Bacillus cereus, Salmonella typhi, Klebsiella pneumonia, Pseudomonas aeruginosa and Proteus mirabilis organism viable count per mL in the stock suspension was determined using surface viable counting technique. About 10^8–10^9 colony-forming units (CFU) per mL were used as inoculum in subsequent experiments. A fresh stock suspension was used each time.
(§3) The antibacterial activity of the isolated compounds (morin, phloroglucinol, and 1-hexyl benzene) was determined using agar well diffusion method. Muller–Hinton agar media was prepared and autoclaved at 15 lbs pressure for 20 min and cooled to 45 °C. The standard bacterial stock suspension 10^8–10^9 CFU/mL were spread on Muller–Hinton agar plates and five wells (3 mm in diameter; four on side and one in center) were punched in plates using a sterile cork borer. The entire wells were filled with 100 µL of the isolated compounds (stock solution: 1 mg/mL) using microtiter-pipette and allowed to diffuse at room temperature for 2 h. The plates were incubated at 37 °C for 24 h. In the center hole, Imipenem was added which served as positive control. Simultaneous, addition of an equal concentration of DMSO solvent instead of isolated compounds was used as blank. After incubation, the zones of inhibition were measured in millimeters (mm) and mean values were calculated. The experiments were performed in triplicates.

Proteus mirabilis = assay: Agar well diffusion, zone of inhibition; format: cell-based; details: 37 °C, 24 h
Experimental: as §1, §2, §3

Pseudomonas aeruginosa = assay: Agar well diffusion, zone of inhibition; format: cell-based; details: 37 °C, 24 h
Experimental: as §1, §2, §3

Klebsiella pneumonia = assay: Agar well diffusion, zone of inhibition; format: cell-based; details: Klebsiella pneumoniae, 37 °C, 24 h
Experimental: as §1, §2, §3

Bacillus cereus = assay: Agar well diffusion, zone of inhibition; format: cell-based; details: 37 °C, 24 h
Experimental: as §1, §2, §3

Salmonella typhi = assay: Agar well diffusion, zone of inhibition; format: cell-based; details: Salmonella enterica, TYPHI, 24 h
[1] = target: Type-I α-glucosidase (Baker Yeast) (Saccharomyces cerevisiae, UniProt P53341); assay: In vitro α-glucosidase inhibition assay (PNPG); format: biochemical
Sequence of Type-I α-glucosidase (Baker Yeast) (P53341 whole entry): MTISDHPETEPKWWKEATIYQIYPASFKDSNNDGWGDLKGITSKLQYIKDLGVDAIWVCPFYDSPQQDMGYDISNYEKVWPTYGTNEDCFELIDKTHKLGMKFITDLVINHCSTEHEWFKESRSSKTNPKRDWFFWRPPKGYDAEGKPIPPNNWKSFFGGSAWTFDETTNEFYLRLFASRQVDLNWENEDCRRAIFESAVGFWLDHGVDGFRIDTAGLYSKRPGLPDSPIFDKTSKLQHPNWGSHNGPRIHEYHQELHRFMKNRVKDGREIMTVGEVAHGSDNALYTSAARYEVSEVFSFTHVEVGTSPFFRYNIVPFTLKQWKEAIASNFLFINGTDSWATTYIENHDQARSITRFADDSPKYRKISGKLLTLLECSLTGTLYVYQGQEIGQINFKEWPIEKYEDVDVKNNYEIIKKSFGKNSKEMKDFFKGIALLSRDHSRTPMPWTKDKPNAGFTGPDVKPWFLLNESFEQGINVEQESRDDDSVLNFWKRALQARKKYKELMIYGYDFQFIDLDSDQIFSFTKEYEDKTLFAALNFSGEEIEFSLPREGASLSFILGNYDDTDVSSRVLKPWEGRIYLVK
Source text: Chemicals such as Tween-80 (Scharlau-chem., Barcelona, Spain), normal saline solution (Utsoka Pharma, Las Bela Baluchistan, Pakistan), lipid profile tests kits (Human, Hamburg, Germany), renal profile tests kits, and antioxidant enzymes kits (Biomed: Germany; diagnostic) were used in in vivo study. Mueller Hinton (MH) agar and broth (Merck, Modderfontein, South Africa) were used to culture the bacterial strains. Various solvents such as methanol, n-hexane, ethyl acetate, and chloroform (Merck, Darmstadt, Germany) were also used in this study.
The α-glucosidase inhibition potential of morin was determined according to the reported method with minor changes. The reaction mixture was prepared by taking 100 μL α-glucosidase (0.5 unit/mL), 600 μL phosphate buffer (0.1 M; pH 6.9), and 50 μL of isolated compounds (morin, phloroglucinol, and 1-hexyl benzene) with serial dilutions of 31.05, 62.5, 125, 250, 500 and 1000 µg/mL. All the reaction mixtures were incubated at 37 °C for 15 min. The enzymatic reactions were started by adding 100 μL substrate (p-nitro-phenyl-α-D-glucopyranoside) solution (5 mM) formed in phosphate buffer (0.1 M; pH 6.9), finally incubated at 37 °C for 15 min. The reaction was completed by adding sodium carbonate (400 μL; 0.2 M) solution and then at 405 nm absorbance was measured. The blank solution was prepared containing only isolated compounds without α-glucosidase. Percent α-glucosidase inhibition potential was calculated using Equation (3): (3) % α − glucosidase Inhibition =control absorbance−sample absorbance/control absorbance×100
(§4) All the in vitro and in vivo experiments were analyzed in three replicates and determined as mean ± SEM. Student’s t-test and one way ANOVA followed by Dunnett’s post hoc multiple comparison test was used. p ≤ 0.05 were considered as significant. Linear regression analysis was used to calculate the IC50 value for % DPPH, ABTS, α-amylase, and α-glucosidase inhibition against the different concentrations of the test samples by means of Excel program 2007.

[2] = target: T1, Type-VI α-amylase (porcine pancreas) (Sus scrofa, UniProt P00690); assay: In vitro α-amylase inhibition assay (DNSA); format: biochemical; details: read-out: % α-Amylase Inhibition Mean ± SEM
T1 construct: purchased Sigma Aldrich (Darmstadt, Germany); host or cells: porcine pancreas
T1 sequence (P00690 16-511): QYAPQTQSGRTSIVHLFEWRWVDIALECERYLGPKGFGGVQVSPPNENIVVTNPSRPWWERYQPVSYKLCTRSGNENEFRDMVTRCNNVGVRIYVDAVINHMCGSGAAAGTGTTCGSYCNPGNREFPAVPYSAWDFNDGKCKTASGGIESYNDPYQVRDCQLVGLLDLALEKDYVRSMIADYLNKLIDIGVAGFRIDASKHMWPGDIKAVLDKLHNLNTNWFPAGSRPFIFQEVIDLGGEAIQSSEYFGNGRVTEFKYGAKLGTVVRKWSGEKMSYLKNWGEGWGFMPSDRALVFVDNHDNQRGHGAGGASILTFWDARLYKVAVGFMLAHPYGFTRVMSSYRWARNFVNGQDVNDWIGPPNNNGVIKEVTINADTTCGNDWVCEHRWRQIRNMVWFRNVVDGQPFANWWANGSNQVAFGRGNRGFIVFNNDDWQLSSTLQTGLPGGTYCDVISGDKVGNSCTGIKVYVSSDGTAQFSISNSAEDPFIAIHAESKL
Experimental: The α-amylase inhibition activity of morin was assessed using 3, 5-dinitrosalicylic acid (DNSA) assay. Morin, phloroglucinol, and 1-hexyl benzene were dissolved in mixture of 10% DMSO, 0.02M Na2HPO4/NaH2PO4 buffer, and 0.006M NaCl (pH 6.9) and finally dilutions (31.05, 62.5, 125, 250, 500 and 1000 µg/mL) were prepared. In total, 200 μL α-amylase (2 units/mL) was mixed with 200 μL morin and incubated at 30 °C for 10 min. After that, 200 μL starch (1%) was added to each serial dilution and incubated for 3 min. To stop the reaction 200 μL sodium potassium tartrate tetrahydrate reagent, 2M NaOH, and […] DNSA (96mM) reagent were added to the reaction mixture. The reaction mixtures were boiled for 10 min at 85–90 °C in a water bath. After cooling the mixture was diluted with 5mL distilled water and finally at 540 nm absorbance was recorded. A blank solution was prepared containing only isolated compound morin but no enzyme. […] The α-amylase enzyme inhibitory activity was calculated by the following Equation (2): (2) % α − amylase Inhibition =control absorbance−sample absorbance/control absorbance×100
as §4

[3] = test system: STZ-induced diabetic rats; assay: STZ-induced diabetic rat model: serum biochemical parameters (liver, renal, lipid profile, HbA1c); format: in vivo, Sprague Dawley adult albino rats
Experimental: (§5) All the animals were separated into nine groups having eight animals each (Table 1). In the current investigational study STZ-induced diabetic model was used to evaluate the anti-hyperglycemic and anti-hyperlipidemic activity of isolated compound morin in chronic multiple dose experiment. All the animals were treated with their respective treatments for 21 days starting daily at 09:00 am. The fasting blood glucose levels were determined at 0, 4th, 7th, 10th, 15th, and 21st days with glucometer from the tail vein. Changes in the body weight were recorded for untreated control, diabetic, and treated groups in fasting condition from day 1 to day 21 of experimental period and are presented as % increase in body weight.
(§6) According to the reported protocol diabetes was induced into Sprague Dawley adult albino rats by intraperitoneal injection of STZ (50 mg/kg body weight). Blood samples were collected from the tail vein through glucometer strips by means of SD glucometer and the level of blood glucose was measured 72 h after STZ injection. Normal control groups were given normal saline (8 mL/kg, p.o.) as a vehicle, while isolated compound morin to the treatment groups from 3 days after STZ administration for 3 weeks. Animals with blood glucose levels higher than 300 mg/dL were considered diabetic. During the experiment the blood glucose level and body weights were measured.
On 21st day of in vivo antidiabetic activity, all the animals were anesthetized by intraperitoneal (IP) injection of pentobarbital sodium (35 mg/kg body weight) and euthanized by means of cervical decapitation according to the ARRIVE guidelines. Blood samples were collected by cardiac puncture and transferred to EDTA containing tubes. Blood was centrifuged at 3500 rpm for 10 min for the separation of serum. Biochemical parameters like serum alkaline phosphatase (ALP), serum glutamate pyruvate transaminase (SGPT), serum glutamate oxaloacetate transaminase (SGOT) and lipid parameters like total cholesterol (TC), triglycerides (TG), low-density lipoproteins (LDL), high-density lipoprotein (HDL), and serum creatinine in serum were assessed by using Biochemistry analyzer (PS-520; Shenzhen Procan Electronics-China) using diagnostic kits (Reactivos, GPL Barcelona, Spain). According to the reported protocol an enzyme-linked immunosorbent assay (ELISA) kit was used to evaluate the level of glycosylated hemoglobin (HbA1c).

[4] = test system: STZ-induced diabetic rats; assay: STZ-induced diabetic rat model: fasting blood glucose and body weight; format: in vivo, Sprague Dawley adult albino rats; details: vs diabetic control rats
Experimental: Sprague Dawley adult albino rats (body weight range = 170–200 g) were used in in vivo studies. The animals were purchased from Rifah Institute of Pharmaceutical Sciences Islamabad. The entire animals were given food and fresh water ad libitum. The animals were adjusted at room temperature around 22–25 °C. The animals were housed three rats per cage and maintained with light/dark cycle of about 12 h. All the in vivo procedures were carried out according to the ARRIVE guidelines and approval was taken from the Departmental Animal Ethical Committee (DAEC/2019/1), University of Malakand.
as §5, §6

[5] = test system: STZ-induced diabetic rats; assay: Pancreas histopathological assessment (H & E); format: in vivo, Sprague Dawley adult albino rats; details: glibenclamide 5 mg/kg
Source text: For histopathological assessment, the pancreas tissues were removed immediately and washed with cold saline solution to remove the blood. Finally, the pancreas portions were fixed in 10% formalin, dehydrated with mixture of ethanol/xylene and then fixed with paraffin. Staining of tissue slides was done with hematoxylin and eosin (H & E) dye through automatic slide stainer (Sakura Tissue-Tek® DRS™ 2000; Tokyo, Japan). According to the reported assay, the stained slides were observed under microscope to see any variation in pancreatic tissue architecture of STZ-induced diabetic group and treated (glibenclamide/morin) groups.

[6] = glibenclamide 0.5 mg/kg, morin 15, 30, and 50 mg/kg, vs diabetic control rats
[7] = glibenclamide 5 mg/kg, morin 15, 30, and 50 mg/kg body weight, serum, day 21, vs diabetic control

Structure (SMILES): C[C@@H](O)[C@H]1C(=O)N2C(C(=O)O)=C(SCCN=CN)C[C@H]12 [Imipenem, reference compound]
- zone of inhibition at 100 µg/mL (Staphylococcus aureus): 25 ± 0.3 mm
- zone of inhibition at 100 µg/mL (Escherichia coli): 33 ± 0.2 mm
- zone of inhibition at 100 µg/mL (Proteus mirabilis): 30 ± 0.5 mm
- zone of inhibition at 100 µg/mL (Pseudomonas aeruginosa): 27 ± 1.1 mm
- zone of inhibition at 100 µg/mL (Klebsiella pneumonia): 29 ± 0.5 mm
- zone of inhibition at 100 µg/mL (Bacillus cereus): 30 ± 0.5 mm
- zone of inhibition at 100 µg/mL (Salmonella typhi): 33 ± 0.1 mm

Structure (SMILES): C[C@H]1O[C@H](O[C@H]2[C@H](O)[C@@H](O)[C@@H](O[C@H]3[C@H](O)[C@@H](O)C(O)O[C@@H]3CO)O[C@@H]2CO)[C@H](O)[C@@H](O)[C@@H]1N[C@H]1C=C(CO)[C@@H](O)[C@H](O)[C@H]1O (stereo partly shown) [Standard acarbose, acarbose, reference compound]
- % α-Glucosidase Inhibition Mean ± SEM ([1]; 31.05 µg/mL): 60 ± 0.4%
- % α-Glucosidase Inhibition Mean ± SEM ([1]; 62.5 µg/mL): 68 ± 0.5%
- % α-Glucosidase Inhibition Mean ± SEM ([1]; 125 µg/mL): 71 ± 0.5%
- % α-Glucosidase Inhibition Mean ± SEM ([1]; 250 µg/mL): 77 ± 1.0%
- % α-Glucosidase Inhibition Mean ± SEM ([1]; 500 µg/mL): 82 ± 0.4%
- % α-Glucosidase Inhibition Mean ± SEM ([1]; 1000 µg/mL): 89 ± 0.5%
- inhibition at 31.05 µg/mL [2]: 48 ± 0.4%
- inhibition at 62.5 µg/mL [2]: 62 ± 0.5%
- inhibition at 125 µg/mL [2]: 69 ± 0.5%
- inhibition at 250 µg/mL [2]: 75 ± 1.1%
- inhibition at 500 µg/mL [2]: 83 ± 0.5%
- inhibition at 1000 µg/mL [2]: 90 ± 0.5%

Structure (SMILES): COc1ccc(Cl)cc1C(=O)NCCc1ccc(S(=O)(=O)NC(=O)NC2CCCCC2)cc1 [glibenclamide, reference compound]
- HDL cholesterol [3, 6]: significantly increased (p < 0.01)
- HbA1c level [3, 6]: significant decrease (p < 0.01; p < 0.001)
- LDL level [3, 6]: significant decrease (p < 0.01; p < 0.001)
- TC level [3, 6]: significant decrease (p < 0.01; p < 0.001)
- TG level [3, 6]: significant decrease (p < 0.01; p < 0.001)
- serum creatinine level ([3]; glibenclamide 5 mg/kg, morin 15, 30, and 50 mg/kg body weight, day 21, vs diabetic control): significantly reduced (p < 0.01; p < 0.001)
- ALP level [3, 7]: significantly reduced (p < 0.01; p < 0.001)
- SGOT level [3, 7]: significantly reduced (p < 0.01; p < 0.001)
- SGPT level [3, 7]: significantly reduced (p < 0.01; p < 0.001)
- body weight ([4]; glibenclamide 0.5 mg/kg, p.o.): significantly (p < 0.001) reversed the diabetes-induced decrease in body weight
- fasting glucose level ([4]; glibenclamide 5 mg/kg body weight, day 21): significantly (p < 0.001) decreased
- pancreas histopathology [5]: did not show any violation from the normal histological pattern
